Reference: patent publication US20140309276A1, “Pharmaceutical Composition Comprising a Mixture of Carboxylated Oligonucleotides” (priority 2013, published 2014)

Legend:
HeLa-2 cells = assay: Anticancer (cytopathic) activity in a culture of HeLa-2 cells, Minimum Active Dose; type: cell-based; settings: minimum amount causing degeneration of 90-95% of the cells; 199 medium; observed 5 days
Procedure: Anticancer activity of Composition in a cell culture was made in a culture of HeLa-2 cells. For this purpose, 2-12 mcg of Composition per ml of medium were added to the 199 medium. A culture without Composition in it was used as a control. Cultures were observed daily over the course of five days. The Minimum Active Dose (MAD) of Composition was also considered to be the minimum amount of the drug that caused a degeneration of 90-95% of the cells (Table 1.)

[1] = system: Ehrlich's ascites adenocarcinoma; assay: Antitumor activity on Ehrlich's ascites adenocarcinoma in mice; type: in vivo, Barbados mice; settings: n = 10
Procedure: The antitumor activity of the compositions were studied in models of Ehrlich's ascites carcinoma in young Barbados mice of both sexes with weights between 15-17 g (68 individuals), which were kept on a vivarium diet.
45 mice were inoculated from a mouse with adenocarcinoma using an insulin syringe with 0.1 ml ascitic fluid in the region of the liver.
Ten mice were administered Composition in liposome form (see Table 5). Ten more mice were administered the Composition substance, and ten more were administered a 0.9% solution of sodium chloride with lipids.

benzidine skin sarcoma = assay: Anticancer activity on benzidine skin sarcoma in mice; type: in vivo, Barbados mice; settings: n = 10
Text: Composition led to a 95% degeneration of tumor cells. To confirm the in vivo antitumor activity, Composition was studied in benzidine skin sarcoma and reinjected ascites adenocarcinomas in Barbados mice. In five mice with adenocarcinomas, the distribution of the Composition liposome throughout the animals' bodies was also studied using a fluorescent probe dissolved in a phospholipid layer.
A Study of the Anticancer Activity of Composition on Benzidine Sarcoma. Before applying it to the silica gel, 7 ml of a solution of 2% benzidine and 0.9% sodium chloride was added until an opalescent suspension was formed (1 g silica gel for 5 ml NaCl solution). Twenty-five Barbados mice of both sexes with a weight of 18-20 g that were kept on a vivarium diet were administered benzidine and phorbol acetate immobilized on silica gel subcutaneously near the neck. After two weeks, 18 animals had developed tumors of different sizes in the form of a small bump on the neck near the silica gel granulomas. Each group of animals was administered the corresponding compound parenterally at a dose of 100 mcg/kg weight twice a day for two weeks, beginning at 16 days after administration of the carcinogen.

For `CC(=O)O[C@@]12CO[C@@H]1C[C@H](O)[C@@]1(C)C(=O)[C@H](O)C3=C(C)[C@@H](OC(=O)[C@H](O)[C@@H](NC(=O)OC(C)(C)C)c4ccccc4)C[C@@](O)([C@@H](OC(=O)c4ccccc4)[C@H]21)C3(C)C` [Taxotere], the “MAD (Minimum Active Dose)” value (HeLa-2 cells) was 10 µg/mL, the “Time of Death of Animals after the First Injection, Average Value, Experimental Animals” value ([1]; in liposomes (+)) was 15 ± 0.5 days and the “Time of Death of Animals after the First Injection, Average Value, Experimental Animals” value ([1]; substance without liposomes (−)) was 14 ± 0.12 days. For the same compound, the “Animal Survival” value (benzidine skin sarcoma) was 28 ± 1.1 days.
